{"source": "ChEMBL document CHEMBL4376820", "about": "“Homodimeric Tobramycin Adjuvant Repurposes Novobiocin as an Effective Antibacterial Agent against Gram-Negative Bacteria” (J Med Chem, 2019)", "key": {"[1]": {"assay": "Toxicity in Galleria mellonella larvae MDR Acinetobacter baumannii isolate assessed as larvae protection at 50 mg/kg in combination with novobiocin measured after 24 to 96 hrs relative to control", "format": "ADME, organism-based", "conditions": "in vivo"}, "Klebsiella pneumoniae": {"tested_on": "Klebsiella pneumoniae", "assay": "Potentiation of novobiocin-induced antibacterial activity against Klebsiella pneumoniae 116381 clinical isolate assessed as novobiocin MIC at <= 7.1 uM incubated for 18 hrs by CLSI protocol based assay (reference value: 1024 ug/ml)", "format": "functional", "conditions": "Klebsiella pneumoniae, 116381, 18 h"}, "Acinetobacter baumannii [2]": {"tested_on": "Acinetobacter baumannii", "assay": "Potentiation of novobiocin-induced antibacterial activity against Acinetobacter baumannii 031 clinical isolate assessed as novobiocin MIC at <= 7.1 uM incubated for 18 hrs by CLSI protocol based assay (reference value: 8 ug/ml)", "format": "functional", "conditions": "Acinetobacter baumannii, 031, 18 h"}, "Pseudomonas aeruginosa [3]": {"tested_on": "Pseudomonas aeruginosa", "assay": "Potentiation of novobiocin-induced antibacterial activity against carbapenem-resistant Pseudomonas aeruginosa 259-96918 clinical isolate assessed as fold reduction in novobiocin MIC incubated for 18 hrs by CLSI protocol based assay relative to novobiocin MIC", "format": "functional"}, "Pseudomonas aeruginosa [4]": {"tested_on": "Pseudomonas aeruginosa", "assay": "Antibacterial activity against Pseudomonas aeruginosa 260-97103 clinical isolate incubated for 18 hrs by CLSI protocol based assay", "format": "functional", "conditions": "260-97103, 18 h"}, "Enterobacter cloacae [5]": {"tested_on": "Enterobacter cloacae", "assay": "Potentiation of novobiocin-induced antibacterial activity against colistin-resistant Enterobacter cloacae 118568 clinical solate assessed as novobiocin MIC at <= 7.1 uM incubated for 18 hrs by CLSI protocol based assay (reference value: 1024 ug/ml)", "format": "functional", "conditions": "Enterobacter cloacae, 118568, 18 h"}, "Escherichia coli [6]": {"tested_on": "Escherichia coli", "assay": "Potentiation of novobiocin-induced antibacterial activity against wild type Escherichia coli ATCC 25922 assessed as novobiocin MIC at <= 7.1 uM incubated for 18 hrs by CLSI protocol based assay (reference value: 64 ug/ml)", "format": "functional", "conditions": "ATCC 25922, 18 h"}, "Pseudomonas aeruginosa [7]": {"tested_on": "Pseudomonas aeruginosa", "assay": "Synergistic antibacterial activity against wild type Pseudomonas aeruginosa PAO1 assessed as potentiation of cefotaxime-induced antibacterial effect incubated for 18 hrs by checkerboard assay", "format": "functional, organism-based"}, "Pseudomonas aeruginosa [8]": {"tested_on": "Pseudomonas aeruginosa", "assay": "Synergistic antibacterial activity against wild type Pseudomonas aeruginosa PAO1 assessed as potentiation of novobiocin-induced antibacterial effect incubated for 18 hrs by checkerboard assay", "format": "functional, organism-based"}, "Pseudomonas aeruginosa [9]": {"tested_on": "Pseudomonas aeruginosa", "assay": "Synergistic antibacterial activity against wild type Pseudomonas aeruginosa PAO1 assessed as potentiation of rifampicin-induced antibacterial effect incubated for 18 hrs by checkerboard assay", "format": "functional, organism-based"}, "Pseudomonas aeruginosa [10]": {"tested_on": "Pseudomonas aeruginosa", "assay": "Synergistic antibacterial activity against wild type Pseudomonas aeruginosa PAO1 assessed as potentiation of novobiocin-induced antibacterial effect incubated for 18 hrs by checkerboard assay relative to novobiocin alone", "format": "functional"}, "Pseudomonas aeruginosa [11]": {"tested_on": "Pseudomonas aeruginosa", "assay": "Synergistic antibacterial activity against wild type Pseudomonas aeruginosa PAO1 assessed as potentiation of meropenem-induced antibacterial effect incubated for 18 hrs by checkerboard assay", "format": "functional, organism-based"}, "Acinetobacter baumannii [12]": {"tested_on": "Acinetobacter baumannii", "assay": "Potentiation of novobiocin-induced antibacterial activity against Acinetobacter baumannii LAC-4 clinical isolate assessed as novobiocin MIC at <= 7.1 uM incubated for 18 hrs by CLSI protocol based assay (reference value: 8 ug/ml)", "format": "functional", "conditions": "LAC-4, 18 h"}, "Acinetobacter baumannii [13]": {"tested_on": "Acinetobacter baumannii", "assay": "Antibacterial activity against wild type Acinetobacter baumannii ATCC 17978 by checkerboard assay", "format": "functional"}, "Pseudomonas aeruginosa [14]": {"tested_on": "Pseudomonas aeruginosa", "assay": "Synergistic antibacterial activity against wild type Pseudomonas aeruginosa PAO1 assessed as potentiation of fosfomycin-induced antibacterial effect incubated for 18 hrs by checkerboard assay", "format": "functional, organism-based"}, "Pseudomonas aeruginosa [15]": {"tested_on": "Pseudomonas aeruginosa", "assay": "Potentiation of novobiocin-induced antibacterial activity against carbapenem and colistin-resistant Pseudomonas aeruginosa 114228 clinical isolate assessed as novobiocin MIC at <= 7.1 uM incubated for 18 hrs by CLSI protocol based assay (reference value: 512 ug/ml)", "format": "functional", "conditions": "Pseudomonas aeruginosa, 114228, 18 h"}, "Acinetobacter baumannii [16]": {"tested_on": "Acinetobacter baumannii", "assay": "Potentiation of novobiocin-induced antibacterial activity against wild type Acinetobacter baumannii ATCC 17978 assessed as fold reduction in novobiocin MIC incubated for 18 hrs by CLSI protocol based assay relative to novobiocin MIC", "format": "functional"}, "Pseudomonas aeruginosa [17]": {"tested_on": "Pseudomonas aeruginosa", "assay": "Synergistic antibacterial activity against wild type Pseudomonas aeruginosa PAO1 assessed as potentiation of fosfomycin-induced antibacterial effect incubated for 18 hrs by checkerboard assay relative to fosfomycin alone", "format": "functional"}, "Pseudomonas aeruginosa [18]": {"tested_on": "Pseudomonas aeruginosa", "assay": "Potentiation of novobiocin-induced antibacterial activity against carbapenem-resistant Pseudomonas aeruginosa 260-97103 clinical isolate assessed as novobiocin MIC at <= 7.1 uM incubated for 18 hrs by CLSI protocol based assay (reference value: 256 ug/ml)", "format": "functional", "conditions": "260-97103, 18 h"}, "Pseudomonas aeruginosa [19]": {"tested_on": "Pseudomonas aeruginosa", "assay": "Potentiation of novobiocin-induced antibacterial activity against carbapenem-resistant Pseudomonas aeruginosa 101885 clinical isolate assessed as novobiocin MIC at <= 7.1 uM incubated for 18 hrs by CLSI protocol based assay (reference value: 1024 ug/ml)", "format": "functional", "conditions": "Pseudomonas aeruginosa, 101885, 18 h"}, "Pseudomonas aeruginosa [20]": {"tested_on": "Pseudomonas aeruginosa", "assay": "Potentiation of novobiocin-induced antibacterial activity against wild type Pseudomonas aeruginosa PAO1 assessed as fold reduction in novobiocin MIC incubated for 18 hrs by CLSI protocol based assay relative to novobiocin MIC", "format": "functional"}, "Enterobacter cloacae [21]": {"tested_on": "Enterobacter cloacae", "assay": "Potentiation of novobiocin-induced antibacterial activity against colistin-resistant Enterobacter cloacae 121187 clinical solate assessed as novobiocin MIC at <= 7.1 uM incubated for 18 hrs by CLSI protocol based assay (reference value: 64 ug/ml)", "format": "functional", "conditions": "Enterobacter cloacae, 121187, 18 h"}, "Pseudomonas aeruginosa [22]": {"tested_on": "Pseudomonas aeruginosa", "assay": "Synergistic antibacterial activity against wild type Pseudomonas aeruginosa PAO1 assessed as potentiation of levofloxacin-induced antibacterial effect incubated for 18 hrs by checkerboard assay", "format": "functional, organism-based"}, "Pseudomonas aeruginosa [23]": {"tested_on": "Pseudomonas aeruginosa", "assay": "Synergistic antibacterial activity against wild type Pseudomonas aeruginosa PAO1 assessed as potentiation of doxycycline-induced antibacterial effect incubated for 18 hrs by checkerboard assay", "format": "functional, organism-based"}, "Escherichia coli [24]": {"tested_on": "Escherichia coli", "assay": "Potentiation of novobiocin-induced antibacterial activity against carbapenem-resistant Escherichia coli 107115 clinical isolate harboring mcr-1 gene assessed as fold reduction in novobiocin MIC incubated for 18 hrs by CLSI protocol based assay relative to novobiocin MIC", "format": "functional"}, "Enterobacter cloacae [25]": {"tested_on": "Enterobacter cloacae", "assay": "Potentiation of novobiocin-induced antibacterial activity against colistin-resistant Enterobacter cloacae 118568 clinical solate assessed as fold reduction in novobiocin MIC incubated for 18 hrs by CLSI protocol based assay relative to novobiocin MIC", "format": "functional"}, "Acinetobacter baumannii [26]": {"tested_on": "Acinetobacter baumannii", "assay": "Potentiation of novobiocin-induced antibacterial activity against Acinetobacter baumannii 031 clinical isolate assessed as fold reduction in novobiocin MIC incubated for 18 hrs by CLSI protocol based assay relative to novobiocin MIC", "format": "functional"}, "Pseudomonas aeruginosa [27]": {"tested_on": "Pseudomonas aeruginosa", "assay": "Antibacterial activity against wild type Pseudomonas aeruginosa PAO1 assessed as fractional inhibitory concentration index incubated for 18 hrs in presence of colistin by checkerboard assay", "format": "functional"}, "Pseudomonas aeruginosa [28]": {"tested_on": "Pseudomonas aeruginosa", "assay": "Antibacterial activity against wild type Pseudomonas aeruginosa PAO1 incubated for 18 hrs by CLSI protocol based assay", "format": "functional", "conditions": "PAO1, 18 h"}, "[29]": {"assay": "Toxicity in Galleria mellonella larvae MDR Acinetobacter baumannii isolate assessed as mortality at 100 mg/kg measured after 24 hrs relative to control", "format": "ADME, organism-based", "conditions": "in vivo, read-out: Activity"}, "Pseudomonas aeruginosa [30]": {"tested_on": "Pseudomonas aeruginosa", "assay": "Synergistic antibacterial activity against wild type Pseudomonas aeruginosa PAO1 assessed as potentiation of ciprofloxacin-induced antibacterial effect incubated for 18 hrs by checkerboard assay", "format": "functional, organism-based"}, "Pseudomonas aeruginosa [31]": {"tested_on": "Pseudomonas aeruginosa", "assay": "Potentiation of novobiocin-induced antibacterial activity against carbapenem and colistin-resistant Pseudomonas aeruginosa 91433 clinical isolate assessed as fold reduction in novobiocin MIC incubated for 18 hrs by CLSI protocol based assay relative to novobiocin MIC", "format": "functional"}}}
{"smiles": "NC[C@H]1O[C@H](O[C@H]2[C@H](OCCCCc3cn(CCCCO[C@@H]4[C@@H](O[C@H]5O[C@H](CO)[C@@H](O)[C@H](N)[C@H]5O)[C@H](N)C[C@H](N)[C@H]4O[C@H]4O[C@H](CN)[C@@H](O)C[C@H]4N)nn3)[C@@H](O[C@H]3O[C@H](CO)[C@@H](O)[C@H](N)[C@H]3O)[C@H](N)C[C@@H]2N)[C@H](N)C[C@@H]1O.O=C(O)C(F)(F)F.O=C(O)C(F)(F)F.O=C(O)C(F)(F)F.O=C(O)C(F)(F)F.O=C(O)C(F)(F)F.O=C(O)C(F)(F)F.O=C(O)C(F)(F)F.O=C(O)C(F)(F)F.O=C(O)C(F)(F)F.O=C(O)C(F)(F)F", "values": [{"measurement": "Activity", "setting": "[1]", "result": 80, "unit": "%"}, {"measurement": "MIC", "setting": "Klebsiella pneumoniae", "result": 8, "unit": "µg/mL"}, {"measurement": "MIC", "setting": "Acinetobacter baumannii [2]", "result": 0.5, "unit": "µg/mL"}, {"measurement": "Ratio", "setting": "Pseudomonas aeruginosa [3]", "result": 64}, {"measurement": "MIC", "setting": "Pseudomonas aeruginosa [4]", "result": "> 128", "unit": "µg/mL"}, {"measurement": "MIC", "setting": "Enterobacter cloacae [5]", "result": 32, "unit": "µg/mL"}, {"measurement": "MIC", "setting": "Escherichia coli [6]", "result": 2, "unit": "µg/mL"}, {"measurement": "Activity", "setting": "Pseudomonas aeruginosa [7]", "result": "Dose-dependent effect"}, {"measurement": "Activity", "setting": "Pseudomonas aeruginosa [8]", "result": "Dose-dependent effect"}, {"measurement": "Activity", "setting": "Pseudomonas aeruginosa [9]", "result": "Dose-dependent effect"}, {"measurement": "fold change (FC)", "setting": "Pseudomonas aeruginosa [10]", "result": "4 - 128"}, {"measurement": "Activity", "setting": "Pseudomonas aeruginosa [11]", "result": "Dose-dependent effect"}, {"measurement": "MIC", "setting": "Acinetobacter baumannii [12]", "result": 0.5, "unit": "µg/mL"}, {"measurement": "MIC", "setting": "Acinetobacter baumannii [13]", "result": 0.5, "unit": "µg/mL"}, {"measurement": "Activity", "setting": "Pseudomonas aeruginosa [14]", "result": "Dose-dependent effect"}, {"measurement": "MIC", "setting": "Pseudomonas aeruginosa [15]", "result": 16, "unit": "µg/mL"}, {"measurement": "Ratio", "setting": "Acinetobacter baumannii [16]", "result": 32}, {"measurement": "fold change (FC)", "setting": "Pseudomonas aeruginosa [17]", "result": "4 - 128"}, {"measurement": "MIC", "setting": "Pseudomonas aeruginosa [18]", "result": 1, "unit": "µg/mL"}, {"measurement": "MIC", "setting": "Pseudomonas aeruginosa [19]", "result": 8, "unit": "µg/mL"}, {"measurement": "Ratio", "setting": "Pseudomonas aeruginosa [20]", "result": 128}, {"measurement": "MIC", "setting": "Enterobacter cloacae [21]", "result": 8, "unit": "µg/mL"}, {"measurement": "Activity", "setting": "Pseudomonas aeruginosa [22]", "result": "Dose-dependent effect"}, {"measurement": "Activity", "setting": "Pseudomonas aeruginosa [23]", "result": "Dose-dependent effect"}, {"measurement": "Ratio", "setting": "Escherichia coli [24]", "result": 16}, {"measurement": "Ratio", "setting": "Enterobacter cloacae [25]", "result": 32}, {"measurement": "Ratio", "setting": "Acinetobacter baumannii [26]", "result": 16}, {"measurement": "fractional inhibitory concentration index (FICI)", "setting": "Pseudomonas aeruginosa [27]", "result": ">4"}, {"measurement": "MIC", "setting": "Pseudomonas aeruginosa [28]", "result": "> 128", "unit": "µg/mL"}, {"measurement": "mortality at 24 h", "setting": "[29]", "result": 100, "unit": "%"}, {"measurement": "Activity", "setting": "Pseudomonas aeruginosa [30]", "result": "Dose-dependent effect"}, {"measurement": "Ratio", "setting": "Pseudomonas aeruginosa [31]", "result": 16}]}
